Experimental data as given in ChEMBL document CHEMBL1150969, “New alkaloids from the papua new guinean sponge agelas nakamurai” (J Nat Prod, 1998).
Values after ≈ are worked out from the molar mass of the structure shown. Each block holds one compound with its values, some of them ahead of it. Active and inactive are the calls of the source. The calls are words filed in the database; no cut-off is given here.

Legend:
[1] = system: Staphylococcus epidermidis; assay: Antimicrobial activity against Staphylococcus epidermidis 13889; type: functional, organism-based
Enterococcus faecium = assay: Antimicrobial activity against Enterococcus faecium 12367; type: functional, organism-based
[2] = target: Human immunodeficiency virus type 1 integrase (Human immunodeficiency virus 1) (UniProt Q7ZJM1); assay: Inhibition of HIV1 integrase at 10 ug/ml
Sequence of Human immunodeficiency virus type 1 integrase (Human immunodeficiency virus 1) (Q7ZJM1 as listed by the source): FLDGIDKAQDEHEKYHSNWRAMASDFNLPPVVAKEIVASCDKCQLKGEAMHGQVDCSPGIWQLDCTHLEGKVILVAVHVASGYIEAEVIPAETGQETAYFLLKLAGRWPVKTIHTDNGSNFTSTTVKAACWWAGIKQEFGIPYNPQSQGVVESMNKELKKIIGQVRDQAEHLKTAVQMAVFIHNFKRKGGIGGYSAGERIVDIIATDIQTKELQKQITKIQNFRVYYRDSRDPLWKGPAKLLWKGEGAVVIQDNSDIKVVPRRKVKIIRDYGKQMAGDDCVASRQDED

Enterococcus faecalis = assay: Antimicrobial activity against Enterococcus faecalis 12964; type: functional, organism-based
Cryptococcus neoformans = assay: Antimicrobial activity against Cryptococcus neoformans TIMM 0354; type: functional, organism-based
Candida albicans = assay: Antimicrobial activity against Candida albicans IFO 1269; type: functional, organism-based
Pseudomonas aeruginosa = assay: Antimicrobial activity against Pseudomonas aeruginosa upto 12.5 ug/ml; type: functional, organism-based
Staphylococcus aureus [3] = assay: Antimicrobial activity against methicillin-resistant Staphylococcus aureus; type: functional, organism-based
Escherichia coli = assay: Antimicrobial activity against Escherichia coli upto 12.5 ug/ml; type: functional, organism-based
Staphylococcus aureus [4] = assay: Antimicrobial activity against Staphylococcus aureus 12732; type: functional, organism-based

Compound: NC(=O)c1ccc(Br)[nH]1
IC50 [1]: 3.13 µg/mL (≈ 16.6 µM)
IC50 (Enterococcus faecium): 3.13 µg/mL (≈ 16.6 µM)
Activity [2]: inactive
IC50 (Enterococcus faecalis): 6.25 µg/mL (≈ 33.1 µM)
IC50 (Cryptococcus neoformans): 3.13 µg/mL (≈ 16.6 µM)
IC50 (Candida albicans): 6.25 µg/mL (≈ 33.1 µM)
Activity (Pseudomonas aeruginosa): inactive
IC50 (Staphylococcus aureus [3]): 3.13 µg/mL (≈ 16.6 µM)
Activity (Escherichia coli): inactive
IC50 (Staphylococcus aureus [4]): 0.78 µg/mL (≈ 4.13 µM)

Compound: CC1=CCC[C@@H]2[C@@](C)(CC/C(C)=C/Cn3c[n+](C)c4ncnc(N)c43)[C@H](C)CC[C@@]12C.[Cl-] [AGELASINE B]
IC50 [1]: 1.56 µg/mL
IC50 (Enterococcus faecium): 3.13 µg/mL
IC50 (Enterococcus faecalis): 6.25 µg/mL
IC50 (Cryptococcus neoformans): 3.13 µg/mL
IC50 (Candida albicans): > 12.5 µg/mL
IC50 (Staphylococcus aureus [3]): 3.13 µg/mL
IC50 (Staphylococcus aureus [4]): 0.78 µg/mL

Activity [2]: inactive
Compound: C=C1CC[C@]2(C)[C@@H](C)CCC[C@]2(C)[C@H]1CC/C(C)=C/Cn1c[n+](C)c2ncnc(N)c21
Activity (Pseudomonas aeruginosa): inactive
Activity (Escherichia coli): inactive

Activity [2]: inactive
Compound: COCNC(=O)c1ccc(Br)[nH]1
Activity (Pseudomonas aeruginosa): inactive
Activity (Escherichia coli): inactive
